# Laboratory results from ChEMBL document CHEMBL1127148, “The squalestatins: novel inhibitors of squalene synthase. The optimal C1 chain-length requirements” (Bioorg Med Chem Lett, 1993).
# Biological target: T1, Squalene synthase (Rattus norvegicus, UniProt Q02769)
# T1 sequence (Q02769 whole entry): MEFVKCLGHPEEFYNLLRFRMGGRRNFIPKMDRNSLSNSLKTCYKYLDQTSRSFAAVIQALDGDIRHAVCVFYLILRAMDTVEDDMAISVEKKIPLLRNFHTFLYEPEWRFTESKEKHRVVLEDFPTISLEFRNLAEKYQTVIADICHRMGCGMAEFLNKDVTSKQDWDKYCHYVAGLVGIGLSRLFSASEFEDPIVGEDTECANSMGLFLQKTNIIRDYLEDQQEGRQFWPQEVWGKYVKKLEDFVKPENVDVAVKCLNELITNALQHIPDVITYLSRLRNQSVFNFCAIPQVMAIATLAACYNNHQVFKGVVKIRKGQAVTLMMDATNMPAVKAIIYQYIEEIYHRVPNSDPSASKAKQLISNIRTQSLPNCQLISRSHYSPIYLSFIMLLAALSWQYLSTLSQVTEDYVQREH
# Assay: Inhibition of Squalene synthase activity in juvenile male rat liver microsomes
# Set-up: species or system Microsome
row,IC50 [nM],Compound
1,> 500,CCCC(=O)CCC[C@]12O[C@H](C(=O)O)[C@@](O)(C(=O)O)[C@](C(=O)O)(O1)[C@H](OC(=O)CC[C@@H](C)C[C@@H](C)CC)[C@H]2O
2,470,CC[C@H](C)C[C@H](C)CCC(=O)O[C@@H]1[C@@H](O)[C@@]2(CCC(C)=O)O[C@H](C(=O)O)[C@@](O)(C(=O)O)[C@]1(C(=O)O)O2
3,5,C=C(CC[C@]12O[C@H](C(=O)O)[C@@](O)(C(=O)O)[C@](C(=O)O)(O1)[C@H](OC(=O)/C=C/[C@@H](C)C[C@@H](C)CC)[C@H]2O)[C@H](O)[C@@H](C)Cc1ccccc1
4,> 500,CC[C@H](C)C[C@H](C)CCC(=O)O[C@@H]1[C@@H](O)[C@@]2(CCO)O[C@H](C(=O)O)[C@@](O)(C(=O)O)[C@]1(C(=O)O)O2
5,152,CC[C@H](C)C[C@H](C)CCC(=O)O[C@@H]1[C@@H](O)[C@@]2(CCCC(=O)CCCc3ccccc3)O[C@H](C(=O)O)[C@@](O)(C(=O)O)[C@]1(C(=O)O)O2
6,> 500,CCCCCCC(=O)CCC[C@]12O[C@H](C(=O)O)[C@@](O)(C(=O)O)[C@](C(=O)O)(O1)[C@H](OC(=O)CC[C@@H](C)C[C@@H](C)CC)[C@H]2O
7,56,CC[C@H](C)C[C@H](C)CCC(=O)O[C@@H]1[C@@H](O)[C@@]2(CCCC(=O)CCc3ccccc3)O[C@H](C(=O)O)[C@@](O)(C(=O)O)[C@]1(C(=O)O)O2
8,> 500,CC[C@H](C)C[C@H](C)CCC(=O)O[C@@H]1[C@@H](O)[C@@]2(CCCC(=O)Cc3ccccc3)O[C@H](C(=O)O)[C@@](O)(C(=O)O)[C@]1(C(=O)O)O2
9,48,CC[C@H](C)C[C@H](C)CCC(=O)O[C@@H]1[C@@H](O)[C@@]2(CCC(C)C(=O)CCc3ccccc3)O[C@H](C(=O)O)[C@@](O)(C(=O)O)[C@]1(C(=O)O)O2 (stereo partly drawn)
10,29,CC[C@H](C)C[C@H](C)CCC(=O)O[C@@H]1[C@@H](O)[C@@]2(CCCC(=O)C(C)Cc3ccccc3)O[C@H](C(=O)O)[C@@](O)(C(=O)O)[C@]1(C(=O)O)O2 (stereo partly drawn)

# Biological target: T1, Squalene synthase
# Assay: Tested in vitro for the inhibition of Squalene synthase activity, measured using juvenile male rat liver microsomes
# Set-up: species or system Microsome
row,IC50 [nM],Compound
1,5,CC[C@H](C)C[C@H](C)CCC(=O)O[C@@H]1[C@@H](O)[C@@]2(CCC(=O)[C@H](O)[C@@H](C)Cc3ccccc3)O[C@H](C(=O)O)[C@@](O)(C(=O)O)[C@]1(C(=O)O)O2
2,16,CC[C@H](C)C[C@H](C)CCC(=O)O[C@@H]1[C@@H](O)[C@@]2(CCC(C)C(=O)[C@@H](C)Cc3ccccc3)O[C@H](C(=O)O)[C@@](O)(C(=O)O)[C@]1(C(=O)O)O2 (stereo in doubt)
3,4,CC[C@H](C)C[C@H](C)CCC(=O)O[C@@H]1[C@@H](O)[C@@]2(CCC(O)[C@H](O)[C@@H](C)Cc3ccccc3)O[C@H](C(=O)O)[C@@](O)(C(=O)O)[C@]1(C(=O)O)O2 (stereo partly drawn)
4,2,C=C(CC[C@]12O[C@H](C(=O)O)[C@@](O)(C(=O)O)[C@](C(=O)O)(O1)[C@H](OC(=O)CC[C@@H](C)C[C@@H](C)CC)[C@H]2O)[C@H](O)[C@@H](C)Cc1ccccc1
5,17,CC[C@H](C)C[C@H](C)CCC(=O)O[C@@H]1[C@@H](O)[C@@]2(C/C=C(\C)[C@H](O)[C@@H](C)Cc3ccccc3)O[C@H](C(=O)O)[C@@](O)(C(=O)O)[C@]1(C(=O)O)O2
6,130,"CC[C@H](C)C[C@H](C)CCC(=O)O[C@@H]1[C@@H](O)[C@@]2(CCC(C)C(=O)[C@@H](C)Cc3ccccc3)O[C@H](C(=O)O)[C@@](O)(C(=O)O)[C@]1(C(=O)O)O2 (single isomer, unassigned; isomer 2)"
7,63,CC[C@H](C)C[C@H](C)CCC(=O)O[C@@H]1[C@@H](O)[C@@]2(CC/C(C)=C/[C@@H](C)Cc3ccccc3)O[C@H](C(=O)O)[C@@](O)(C(=O)O)[C@]1(C(=O)O)O2

# System: Rattus norvegicus
# Assay: Tested for daily dose at which compound shows 50% reduction in serum cholesterol levels after oral administration
# Type: functional
row,Compound,Dose [mg/kg]
1,C=C(CC[C@]12O[C@H](C(=O)O)[C@@](O)(C(=O)O)[C@](C(=O)O)(O1)[C@H](OC(=O)/C=C/[C@@H](C)C[C@@H](C)CC)[C@H]2O)[C@H](OC(C)=O)[C@@H](C)Cc1ccccc1,10
